Patent US10646478B2, “Methods for treatment of melanoma” (CHILDREN'S MEDICAL CENTER CORPORATION, priority 2011, dated 2020)

Assays:
[1] = tested on: gene expression (123-gene melanoma signature); assay: Microarray analysis of leflunomide treated zebrafish embryos; type: in vivo
[2] = tested on: pigmented melanocytes in spt5m806 embryos; assay: Spt5 hypomorphic experiments: pigmentation in spt5m806 incross; type: in vivo, zebrafish; conditions: 3 uM
Text: This allele has only a mild pigment defect on its own. […] Embryos were scored at 48 hpf for pigmentation, scored as “unpigmented”, “light”, or “fully pigmented” as compared to untreated wells. Individual embryos were then genotyped for the spt5^m806 mutation as previously described^14. Kruskall-Wallis analysis was used to detect a difference between the genotyped groups.

[3] = tested on: human melanoma cell lines (A375, Hs.294t, RPMI7951); assay: In vitro melanoma proliferation assay (CellTiterGlo); type: cell-based; conditions: A375, Hs.294t, RPMI7951; CellTiterGlo
Method: Human melanoma cell lines (A375, RPMI7951, Hs.294T, MAMLE-3M) were obtained from the American Type Culture Collection. The 8988 cell line was provided by Alec Kimmelman at Dana Farber, and the PANC1 and MDA-231-MB lines were provided by Rania Hartouche at Harvard. Cells were cultured in DMEM/10% FCS at 37 C, 5% CO2. For proliferation assays, 96-well clear bottom plates were used to plate cells at a density of 5,000 cells/well (RPMI7951 and A375) or 10,000 cells/well (MAMLE-3M-3M and Hs.294T) in 100 ul containing indicated concentrations of A771726 or PLX4720 or DMSO. All conditions were tested in triplicate. Media was changed at day 2, and proliferation rate was measured at day 4 using the CellTiterGlo assay kit (Promega). All values are expressed are the % of luciferase relative to the DMSO control well. Differences between groups were statistically analyzed using a generalized linear ANOVA model taking into account factors of PLX4720, A771726 and dose. IC50's were calculated using a log-logistic model.

A375 melanoma cells = assay: In vivo xenograft study of A375 cells in nude mice; design: species or system mouse; conditions: daily i.p.; PLX4720 2.5 mg/kg, Leflunomide 7.5 mg/kg; DMSO 7.4+/−1.3-fold
Method: The A375 cell line was chosen for xenografts based on prior experience with PLX4720 in this line. Cells were grown to 60-70% confluence, trypsinized and 3.5×10^5 cells were transplanted into the right flank of nude mice in a volume of 200 ul. […] Tumors were measured with digital calipers on day 4, 7 and 12 and growth rate was compared to the tumor size on day 0. Growth rates were compared between DMSO, PLX, LEF or […] using ANOVA with repeated measures to identify significant interactions. For the day 12 data, differences between the groups were compared using ANOVA followed by posthoc Tukey's least-squared difference.

[4] = tested on: M481 primary human melanoma xenografts; assay: M481 primary human melanoma xenografts in mice; type: in vivo, mouse; conditions: in combination with Plexicon
CYP450 isoenzymes = conditions: parent compound and active metabolite; cited from earlier work

## Cc1oncc1C(=O)Nc1ccc(C(F)(F)F)cc1 [leflunomide]
[1]; 6.5 uM, 50% epiboly to 24 hpf, 2-fold
  number of genes upregulated: 60 genes
[1]; leflunomide treated embryos
  genes upregulated in the 123-gene melanoma signature that are downregulated: 49%
[2]; mutant embryos
  embryos with few or no melanocytes, spt5m806 mutant: 99%
[2]; wild type embryos
  embryos with few or no melanocytes, wild type: 0%
[3]
  proliferation of human melanoma cell lines: dose-dependent decrease in melanoma proliferation
A375 melanoma cells
  tumor growth at 12 days post-treatment: 4.7+/−0.12 fold
[4]
  tumor volume: more effective when used in combination with Plexicon
CYP450 isoenzymes
  metabolism by CYP450 isoenzymes: Neither the parent compound nor the active metabolite is metabolized by CYP450 isoenzymes
